Measured values as given in patent publication US6013660A (priority 1996, dated 2000).
Entries after “also recorded” stand apart in the source; their conditions may differ. Where two headings read alike, the source gives them in different places.

Experiments:
M. tuberculosis Erdman [1] = test: Effect of L-glutamine on M. tuberculosis Erdman broth cultures with or without MS, Example 13; assay type: cell-based, Mycobacterium tuberculosis; settings: for effect of L-glutamine on M. tuberculosis growth without MS: no MS, FIG. 14; for effect of L-glutamine on M. tuberculosis growth with subinhibitory MS: subinhibitory (minimally inhibitory, FIG. 15) MS
Experimental: L-glutamine (L-GLN) was added to MS-treated cultures of M. tuberculosis Erdman.

M. bovis BCG = settings: FIG. 7; listed as MS
M. smegmatis 1-2c = settings: 0.2, 2, 20, 200 μM MS; FIG. 10
[2] = biological target: T1, extracellular glutamine synthetase (Mycobacterium tuberculosis, UniProt P9WN39)
M. tuberculosis Erdman [3] = settings: 200 μM MS
[4] = test system: L. pneumophila Philadelphia 1; settings: 0.2, 2, 20, 200 μM MS; FIG. 11
[5] = test system: M. tuberculosis, Erdman strain; settings: 2000 μM MS added at 0, 1, 2, 3, 4 weeks; FIG. 3
M. tuberculosis H37Rv = settings: 0.2-200 μM MS; FIG. 5; similar to Erdman; listed as MS
[6] = biological target: cell-associated glutamine synthetase (Mycobacterium tuberculosis, UniProt P9WN39); settings: 20 μM MS; vs untreated; FIG. 22
[7] = biological target: T2, extracellular glutamine synthetase (Mycobacterium avium, UniProt A0ACG7XF78); test: biochemical; settings: read-out: concentration of MS required to completely inhibit glutamine synthetase activity
[8] = biological target: T2, extracellular glutamine synthetase; settings: M. avium vs highly pathogenic strains
M. phlei = settings: 0.2, 2, 20, 200 μM MS; FIG. 9
THP-1 cells = test: Growth/toxicity in human monocyte cell line THP-1, Examples 14 and 15; assay type: cell-based; settings: for effect on growth rate of THP-1 cells: 200 μM MS, FIG. 19
[9] = biological target: T1, extracellular glutamine synthetase; test: biochemical; settings: read-out: extracellular GS activity relative to untreated cultures
M. tuberculosis Erdman [10] = test: M. tuberculosis Erdman growth in broth, various concentrations of inhibitor (Examples 5, 12); assay type: cell-based, Mycobacterium tuberculosis; settings: for inhibitory effect on M. tuberculosis growth (comparison of known GS inhibitors): relative to L-methionine-S-sulfoximine
glutamine synthetase = settings: Manning et al., 1969; cited from earlier work
E. coli DH5α = settings: 0.2, 2, 20, 200 μM MS; FIG. 12
M. tuberculosis Erdman [11] = test: Control: effect of SDS on M. tuberculosis Erdman growth in broth culture (FIG. 24); assay type: cell-based, Mycobacterium tuberculosis; settings: 0.1% SDS
Experimental: In the presence of 200 μM MS, M. tuberculosis growth was inhibited by almost 1 log by two days and by nearly 2 logs by five days.

**Q.** Which “effect of L-glutamine on MS inhibition of M. tuberculosis” value (M. tuberculosis Erdman [1]; inhibitory MS (2, 20, 200 μM), FIGS. 16-18) does the source give for `NC(=O)CC[C@H](N)C(=O)O` [L-glutamine] here?
**A.** reverse the inhibitory effect of MS in a dose-dependent fashion; also recorded: reversed the inhibitory effect of MS

**Q.** What about the “effect of L-glutamine on M. tuberculosis growth without MS” value (M. tuberculosis Erdman [1]) of the same compound?
**A.** no or little influence on M. tuberculosis growth; also recorded: lack of effect

**Q.** What about the “effect of L-glutamine on M. tuberculosis growth without MS” value (M. tuberculosis Erdman [1]; listed as L-GLN) of the same compound?
**A.** no effect on the growth

**Q.** What about the “effect of L-glutamine on M. tuberculosis growth with subinhibitory MS” value (M. tuberculosis Erdman [1]) of the same compound?
**A.** no or little influence on M. tuberculosis growth; also recorded: lack of effect

**Q.** What about the “effect of L-glutamine on M. tuberculosis growth with subinhibitory MS” value (M. tuberculosis Erdman [1]; listed as L-GLN) of the same compound?
**A.** no effect on the growth

**Q.** What does the source list for `C[S@](=N)(=O)CC[C@H](N)C(=O)O` [L-methionine-S-sulfoximine]?
**A.** growth inhibition of M. bovis BCG in broth (M. bovis BCG): strongly inhibits, in dose-dependent fashion; growth inhibition of M. smegmatis (M. smegmatis 1-2c): lack of effect; preferential inhibition of extracellular over cell-associated GS activity ([2]; 20 μM MS, extracellular vs cell-associated): preferentially inhibits extracellular GS activity; extracellular GS activity in M. tuberculosis cultures ([2]; 0.2-200 μM MS from week 1, FIG. 20): marked decrease in extracellular GS activity; increase in extracellular GS activity over 3 weeks (week 1 to week 4) ([2]; 2-200 μM MS): little or no increase in extracellular GS activity; Colony forming units of M. tuberculosis Erdman from infected THP-1 human monocytes (M. tuberculosis Erdman [3]; Day 0): 8.58 × 10^5 CFU; Colony forming units of M. tuberculosis Erdman from infected THP-1 human monocytes (M. tuberculosis Erdman [3]; Day 2): 6.22 × 10^5 CFU; Colony forming units of M. tuberculosis Erdman from infected THP-1 human monocytes (M. tuberculosis Erdman [3]; Day 5a, lysed with sodium dodecyl sulfate): 4.80 × 10^5 CFU; Colony forming units of M. tuberculosis Erdman from infected THP-1 human monocytes (M. tuberculosis Erdman [3]; Day 5b, lysed by vortexing): 4.32 × 10^5 CFU; inhibition of intracellular M. tuberculosis growth (M. tuberculosis Erdman [3]; by five days): ~2 logs; inhibition of intracellular M. tuberculosis growth (M. tuberculosis Erdman [3]; by two days): ~1 log; growth inhibition of L. pneumophila [4]: lack of effect; inhibition of M. tuberculosis growth in broth by time of addition [5]: inhibited the growth of M. tuberculosis in broth cultures when added up to 3 weeks following inoculation; growth inhibition of M. tuberculosis H37Rv in broth (M. tuberculosis H37Rv): strongly inhibits, in dose-dependent fashion; cell-associated GS activity [6]: only slightly reduced; IC100 [7]: 200 µM; concentration required to inhibit GS activity compared with M. tuberculosis and M. bovis [8]: higher than that required to inhibit the glutamine synthetase activity of the highly pathogenic strains of M. tuberculosis and M. bovis; growth inhibition of M. phlei (M. phlei): lack of effect; growth and viability of THP-1 cells (THP-1 cells; 0 or 200 μM MS): grew at the same rate and maintained high viability; effect on growth rate of THP-1 cells (THP-1 cells): lack of effect; effect on growth rate of THP-1 cells (THP-1 cells; listed as MS): no influence on the growth rate of these cells; toxicity against THP-1 cells (THP-1 cells; up to 200 μM MS, listed as MS): no toxicity toward a human monocyte cell line; also recorded: no evidence of toxicity against THP-1 cells; also recorded: no evident toxicity for THP-1 cells up to a concentration of 200 μM; activity at 20 µM [9]: < 25%; growth inhibition of M. tuberculosis Erdman in broth (M. tuberculosis Erdman [10]; 2 μM MS): strongly inhibited; growth inhibition of M. tuberculosis Erdman in broth (M. tuberculosis Erdman [10]; 20 μM MS): completely inhibited; growth inhibition of M. tuberculosis Erdman in broth (M. tuberculosis Erdman [10]; 200 μM MS): completely inhibited; growth inhibition of M. tuberculosis Erdman in broth, overall (M. tuberculosis Erdman [10]; 0.2, 2, 20, 200 μM, OD540 weekly, FIG. 4, listed as MS): strongly inhibits, in dose-dependent fashion; also recorded: inhibited the growth of M. tuberculosis Erdman in broth culture at all concentrations tested; minimal effective concentration (M. tuberculosis Erdman [10]; Mycobacterium tuberculosis, broth culture, FIGS. 4 and 5 (Erdman and H37Rv), read-out: MS concentrations as low as ... inhibited M. tuberculosis growth): 0.2 µM; inhibition of glutamine synthetase (glutamine synthetase): inhibits glutamine synthetase; growth inhibition of E. coli (E. coli DH5α): lack of effect

**Q.** With `CP(=O)(O)CC[C@H](N)C(=O)O` [phosphinothricin, reference compound] as the compound, how does the “inhibitory effect on M. tuberculosis growth (comparison of known GS inhibitors)” value (M. tuberculosis Erdman [10]) read?
**A.** only a very minor inhibitory effect on M. tuberculosis growth

**Q.** For `CCCCCCCCCCCCOS(=O)(=O)[O-].[Na+]` [SDS, sodium dodecyl sulfate], which “influence of SDS on growth of M. tuberculosis in broth” value (M. tuberculosis Erdman [11]) is on record?
**A.** had no influence on growth of M. tuberculosis in broth culture

**Q.** For `CS(=N)(=O)CCC(N)C(=O)O` (racemic) [DL-methionine-SR-sulfoximine, reference compound], which “potency in inhibiting growth of M. tuberculosis relative to L-methionine-S-sulfoximine” value (M. tuberculosis Erdman [10]; FIG. 13 vs FIG. 4) is on record?
**A.** about 1/4

**Q.** And the “inhibitory effect on M. tuberculosis growth (comparison of known GS inhibitors)” value (M. tuberculosis Erdman [10])?
**A.** significantly weaker inhibitory effect on the growth of M. tuberculosis
